Experiment: Stability of the crystalline polymorphic forms of bifeprunox mesylate
Format: physicochemical
Details: for thermodynamic stability of the polymorphic form: solid crystalline form, found during further investigations, monomethanesulfonate

Structure (SMILES)	conversion of the polymorphic form (even at high atmospheric humidity or higher temperature)	thermodynamic stability of the polymorphic form
O=c1[nH]c2cccc(N3CCN(Cc4cccc(-c5ccccc5)c4)CC3)c2o1 [polymorph α, 7-[4-([1,1′-biphenyl]-3-ylmethyl)-1-piperazinyl]-2(3H)-benzoxazolone monomethanesulfonate]	does not undergo conversion	more thermodynamically stable
O=c1[nH]c2cccc(N3CCN(Cc4cccc(-c5ccccc5)c4)CC3)c2o1 [polymorph γ, 7-[4-([1,1′-biphenyl]-3-ylmethyl)-1-piperazinyl]-2(3H)-benzoxazolone monomethanesulfonate]	–	metastable
O=c1[nH]c2cccc(N3CCN(Cc4cccc(-c5ccccc5)c4)CC3)c2o1 [polymorph δ, 7-[4-([1,1′-biphenyl]-3-ylmethyl)-1-piperazinyl]-2(3H)-benzoxazolone monomethanesulfonate]	–	metastable
